We go through 11 molecules from ChEMBL document CHEMBL4393657, “Tetrazole hybrids and their antifungal activities” (2019).

Common to all, as to assay type: functional
In test [1] the test system is Cryptococcus neoformans. Nature of the test: Antifungal activity against Cryptococcus neoformans LA314 assessed as reduction in fungal cell growth incubated for 48 hrs by broth microdilution method. The settings on record: LA314, 48 h. (In general: In broth dilution the organism is exposed to a series of concentrations in liquid medium.)
The test system of test [2] is Nakaseomyces glabratus. Nature of the test: Antifungal activity against Candida glabrata assessed as reduction in fungal cell growth incubated for 48 hrs by broth microdilution method.
Test [3] relates to Candida parapsilosis. Nature of the test: Antifungal activity against Candida parapsilosis ATCC 22019 assessed as reduction in fungal cell growth incubated for 48 hrs by broth microdilution method. As to conditions: Lodderomyces parapsilosis, ATCC 22019, 48 h.
The test system of test [4] is Pichia kudriavzevii. The test is described as follows: Antifungal activity against Candida krusei assessed as reduction in fungal cell growth incubated for 48 hrs by broth microdilution method.
The test system of test [5] is Candida albicans. Nature of the test: Antifungal activity against Candida albicans assessed as reduction in fungal cell growth incubated for 48 hrs by broth microdilution method.
The subject of test [6] is Candida tropicalis. The test is described as follows: Antifungal activity against Candida tropicalis assessed as reduction in fungal cell growth incubated for 48 hrs by broth microdilution method.
Test [7] relates to Aspergillus niger. The test is described as follows: Antifungal activity against Aspergillus niger assessed as reduction in fungal cell growth incubated for 72 hrs by broth microdilution method.

In brackets after ≈: the same amount, converted by molar mass.

A word on the MIC: it is the lowest concentration that inhibits growth of the organism. `CC(n1nnnc1CCN1CCN(Cc2ccccc2)CC1)C(O)(Cn1cncn1)c1ccc(F)cc1F` (configuration not stated): the MIC in test [1], in test [2], in test [3], in test [4], in test [5] and in test [6] was 0.5 to 16 µg/mL (≈ 0.955 to 30.6 µM) throughout. Further, the MIC in test [7] lay in the range of 0.5 to 16 µg/mL (≈ 0.955 to 30.6 µM).
With `C[C@H](n1nnnc1CCN1CCN(c2ccc(Cl)cc2)CC1)[C@](O)(Cn1cncn1)c1ccc(F)cc1F`, the MIC in test [1], in test [2], in test [3], in test [4], in test [5] and in test [6] was 0.12 to 16 µg/mL (≈ 0.221 to 29.4 µM) throughout. Also, the MIC in test [7] lay within 0.12 to 16 µg/mL (≈ 0.221 to 29.4 µM).
`CC(n1nnc(CCN2CCN(c3cccc(C(F)(F)F)c3)CC2)n1)C(O)(Cn1cncn1)c1ccc(F)cc1F` (configuration not stated): the MIC in test [1], in test [2], in test [3], in test [4], in test [5] and in test [6] was 1 to 16 µg/mL (≈ 1.73 to 27.7 µM) throughout. In test [7], the minimum inhibitory concentration (MIC) lay in the range of 1 to 16 µg/mL (≈ 1.73 to 27.7 µM).
In the case of `C[C@H](n1nnnc1CCN1CCN(c2cccc(Cl)c2)CC1)[C@](O)(Cn1cncn1)c1ccc(F)cc1F`, the MIC in test [1], in test [2], in test [3], in test [4], in test [5] and in test [6] was 0.12 to 16 µg/mL (≈ 0.221 to 29.4 µM) throughout. The MIC in test [7] lay within 0.12 to 16 µg/mL (≈ 0.221 to 29.4 µM).
Turning to `CC(n1nnnc1CCN1CCN(c2ccccc2Cl)CC1)C(O)(Cn1cncn1)c1ccc(F)cc1F` (configuration not stated), the MIC in test [1], in test [2], in test [3], in test [4], in test [5] and in test [6] was 0.5 to 16 µg/mL (≈ 0.919 to 29.4 µM) in each case. In addition, the MIC in test [7] was 0.5 to 16 µg/mL (≈ 0.919 to 29.4 µM).
Take `COc1ccc(N2CCN(CCc3nnnn3[C@@H](C)[C@](O)(Cn3cncn3)c3ccc(F)cc3F)CC2)cc1`: the MIC in test [1], in test [2], in test [3], in test [4], in test [5] and in test [6] was 0.12 to 16 µg/mL (≈ 0.222 to 29.7 µM) each time. Further, in test [7], the minimum inhibitory concentration (MIC) was 0.12 to 16 µg/mL (≈ 0.222 to 29.7 µM).
In the case of `OC(Cn1cncn1)(Cn1nnc(CCN2CCN(c3ccc(F)cc3)CC2)n1)c1ccc(F)cc1F` (configuration not stated), the MIC in test [1], in test [2], in test [3], in test [4], in test [5] and in test [6] was 1 to 16 µg/mL (≈ 1.95 to 31.2 µM) in each case. The MIC in test [7] was 1 to 16 µg/mL (≈ 1.95 to 31.2 µM).
As for `CCCCOc1ccccc1N1CCN(CCc2nnn([C@@H](C)[C@](O)(Cn3cncn3)c3ccc(F)cc3F)n2)CC1`, the MIC in test [1], in test [2], in test [3], in test [4], in test [5] and in test [6] was 0.25 to 16 µg/mL (≈ 0.43 to 27.5 µM) each time. The MIC in test [7] fell in the range of 0.25 to 16 µg/mL (≈ 0.43 to 27.5 µM).
Regarding `CC(n1nnnc1CCN1CCN(C(c2ccccc2)c2ccccc2)CC1)C(O)(Cn1cncn1)c1ccc(F)cc1F` (configuration not stated), the MIC in test [1], in test [2], in test [3], in test [4], in test [5] and in test [6] was 0.5 to 16 µg/mL (≈ 0.834 to 26.7 µM) throughout. Also, the minimal inhibitory concentration (MIC) in test [7] lay in the range of 0.5 to 16 µg/mL (≈ 0.834 to 26.7 µM).
For `CC(n1nnnc1CCN1CCN(c2ccccc2)CC1)C(O)(Cn1cncn1)c1ccc(F)cc1F` (configuration not stated), the MIC in test [1], in test [2], in test [3], in test [4], in test [5] and in test [6] was 0.5 to 16 µg/mL (≈ 0.981 to 31.4 µM) throughout. For the same molecule, in test [7], the MIC is 0.5 to 16 µg/mL (≈ 0.981 to 31.4 µM).
In the case of `COc1ccccc1N1CCN(CCc2nnn([C@@H](C)[C@](O)(Cn3cncn3)c3ccc(F)cc3F)n2)CC1`, the MIC in test [1], in test [2], in test [3], in test [4], in test [5] and in test [6] was 0.25 to 16 µg/mL (≈ 0.463 to 29.7 µM) each time. In addition, the MIC in test [7] lay within 0.25 to 16 µg/mL (≈ 0.463 to 29.7 µM).
